Experimental data: US10526341B2, “Thienopyrimidines and uses thereof” (Memorial Sloan-Kettering Cancer Center, priority 2014, dated 2020)
“Also recorded” adds a separate entry of the source.

Assays:
[1] = tested on: DIPG patient-derived tumor line; test: MI-2-2 dose-response curve, cell survival (FIG. 19H); assay type: cell-based, human
Procedure: (§1) FIG. 19 depicts the chemical screen of the transformed NPCs. FIG. 19A is a schematic representation of the screening strategy. A mixture of GFP-labeled normal NPCs and RFP-labeled P5K cells in a 1:3 ratio were plated into 96-well plates and each compound in the library was added in a 2-fold serial dilution for a total of 8 doses. […] Error bars indicate S.D. (n=4). […] Intracranial growth of Luciferase-labeled P5K cells was measured by quantitative in vivo bioluminescence imaging. Values indicate fold change of luminescence before and after the treatment. […] Cells were treated with MI-2 for 7 days and the number of viable cells was counted by trypan-blue staining (n=4). Error bars in panels C-D, E, F and G indicate mean±S.D. *, p<0.05; **, p<0.01. NS, Not Significant. FIG. 19H represents a dose-response curve of MI-2-2.
(§2) The normal neural precursors are being analyzed for proof of maintained phenotype and differentiation ability, in further support of the safety profile of the drug used.

fibroblasts (MRCS) [2] = test: as above; assay type: cell-based, human
Procedure: as §1, §2

[3] = tested on: normal neural precursors (NPC); test: as above; assay type: cell-based, human
Procedure: as §1, §2

042314 = test: alamarBlue cell viability, 12 point dose response, seven days; assay type: cell-based, human; settings: 042314, seven days
Astrocytes [4] = test: as above; assay type: cell-based, human; settings: sub-micromolar doses
Procedure: (§3) Sensitivity to MI-2-2 was assessed by a 12 point dose response curve calculated after seven days of drug exposure and alamarBlue cell viability assay. Multiple patient tumor-derived DIPG (DIPGIV, DIPGVI, MSK-1, Peds8) and Glioblastoma (070909, 030613, 050715, 042315, 040811, 040114) were tested, with fibroblasts (MRCS), hES derived NPCs and astrocytes serving as controls (see FIGS. 29-33). Dose-response curves for the treatment of NPC, DIPGIV, and DIPGVI cell lines with MI-2-2, Panobinostat, and EPZ6438 are shown in FIG. 29.

Glioblastoma 030613 [5] = test: as above; assay type: cell-based, human; settings: 030613, seven days
Procedure: as §3

Glioblastoma 040114 [6] = test: as above; assay type: cell-based, human; settings: 040114, seven days
Procedure: as §3

Glioblastoma 040811 [7] = test: as above; assay type: cell-based, human; settings: 040811, seven days
Procedure: as §3

Glioblastoma 050715 [8] = test: as above; assay type: cell-based, human; settings: 050715, seven days
Procedure: as §3

Glioblastoma 070909 [9] = test: as above; assay type: cell-based, human; settings: 070909, seven days
Procedure: as §3

SU-DIPGIV [10] = test: as above; assay type: cell-based, human
Procedure: as §3

SU-DIPGVI [11] = test: as above; assay type: cell-based, human
Procedure: as §3

fibroblasts (MRCS) [12] = test: as above; assay type: cell-based, human; settings: sub-micromolar doses
Procedure: as §3

hES derived NPCs = test: as above; assay type: cell-based, human; settings: sub-micromolar doses
Procedure: as §3

Astrocytes [13] = test: Ki67 immunofluorescence proliferation assay; assay type: cell-based, human; settings: pre-treatment 2.4
Procedure: (§4) Cell proliferation and apoptosis were assessed by immunofluorescence for Ki67 and TUNEL assays. After staining, Ki67 and TUNEL positive cells were manually counted to calculate a percentage of positive nuclei (see, e.g., FIG. 33). The pharmacokinetic profile of MI-2-2 was assessed by treating animals with 30 mg/kg and 60 mg/kg IP MI-2-2. Tail vein blood sampling and extraction of the pons was performed in animals at multiple time points and samples analyzed by LC-MS to generate a curve.

Fibroblasts [14] = test: Ki67 immunofluorescence proliferation assay; assay type: cell-based, human; settings: pre-treatment 29.6
Procedure: as §4

Glioblastoma 030613 [15] = test: Ki67 immunofluorescence proliferation assay; assay type: cell-based, human; settings: pre-treatment 30.4, *p < 0.05
Procedure: as §4

Glioblastoma 040114 [16] = test: Ki67 immunofluorescence proliferation assay; assay type: cell-based, human; settings: pre-treatment 56.0, *p < 0.05
Procedure: as §4

Glioblastoma 040811 [17] = test: Ki67 immunofluorescence proliferation assay; assay type: cell-based, human; settings: pre-treatment 28.4
Procedure: as §4

Glioblastoma 050715 [18] = test: Ki67 immunofluorescence proliferation assay; assay type: cell-based, human; settings: pre-treatment 11.9
Procedure: as §4

Glioblastoma 070909 [19] = test: Ki67 immunofluorescence proliferation assay; assay type: cell-based, human; settings: pre-treatment 18.2, *p < 0.05
Procedure: as §4

NPC [20] = test: Ki67 immunofluorescence proliferation assay; assay type: cell-based, human; settings: pre-treatment 10.6
Procedure: as §4

SU-DIPGIV [21] = test: Ki67 immunofluorescence proliferation assay; assay type: cell-based, human; settings: pre-treatment 34.9, *p < 0.05
Procedure: as §4

SU-DIPGVI [22] = test: Ki67 immunofluorescence proliferation assay; assay type: cell-based, human; settings: pre-treatment 26.5, *p < 0.05
Procedure: as §4

Fibroblasts [23] = test: TUNEL apoptosis assay; assay type: cell-based, human; settings: pre-treatment 0.4
Procedure: as §4

NPC [24] = test: TUNEL apoptosis assay; assay type: cell-based, human; settings: pre-treatment 3.8
Procedure: as §4

SU-DIPGIV [25] = test: TUNEL apoptosis assay; assay type: cell-based, human; settings: pre-treatment 7.6
Procedure: as §4

SU-DIPGVI [26] = test: TUNEL apoptosis assay; assay type: cell-based, human; settings: pre-treatment 14.3
Procedure: as §4

[27] = Pharmacokinetic profile of MI-2-2, blood and pons by LC-MS; assay type: in vivo, mice; settings: 30 mg/kg systemic MI-2-2
Procedure: as §4
DIPIV xenografts were generated and are monitored monthly for BLI signal prior to randomization into treatment groups.

DIPGVI xenografts = test: DIPGVI xenografts, bioluminescence imaging; assay type: in vivo, mice; settings: 60 mg/kg daily intraperitoneal, at 4 weeks
Procedure: (§5) DIPG and glioblastoma cell lines were used to generate xenografts in NSG immunocompromised mice for in vivo testing. All lines used for xenografting were transfected lentiviral vectors encoding firefly luciferase to enable bioluminescence imaging (BLI). For DIPG xenografts, 100,000 DIGIV or DIPGVI cells were stereotactically injected into the pons of cold anesthetized P6 pups by transcutaneous injection. For GBM xenografts, 500,000 cells (030613 and 040114) were injected stereotactically into the striatum of 6 week old mice anesthetized with ketamine/xylazine cocktail. […] BLI was performed every week during treatment.
(§6) BLI was performed using the IVIS Lumina II system. D-Luciferin (10 uL of 15 mg/mL solution was instilled by retro-orbital injection in mice under […] anesthesia and 5 minute exposures were collected. Fold change over baseline pre-randomization imaging was calculated.

040114 xenografts = test: GBM 040114 xenografts, bioluminescence imaging; assay type: in vivo, mice; settings: 40 mg/kg BID, after three weeks
Procedure: as §5, §6

For CC1(C)CN=C(N2CCN(c3ncnc4sc(CC(F)(F)F)cc34)CC2)S1 [MI-2-2], the IC50 [1] was 0.01 µM, the “survival of fibroblasts (MRCS)” value (fibroblasts (MRCS) [2]) was “highly resistant; also recorded: minimal impact on the survival” and the “survival of normal neural precursors (NPC)” value [3] was “highly resistant; also recorded: minimal impact on the survival”. For the same molecule, the IC50 042314 was 0.0261 µM, the depletion of astrocytes (Astrocytes [4]) was “not depleted at sub-micromolar doses” and the IC50 (Glioblastoma 030613 [5]) was 0.00951 µM. The IC50 (Glioblastoma 040114 [6]) was 0.0364 µM, the IC50 (Glioblastoma 040811 [7]) was 0.113 µM and the IC50 (Glioblastoma 050715 [8]) was 0.0834 µM. For the same molecule, the IC50 (Glioblastoma 070909 [9]) was 0.0135 µM, the IC50 (SU-DIPGIV [10]) was 0.0934 µM and the IC50 (SU-DIPGVI [11]) was 0.121 µM. The depletion of fibroblasts (fibroblasts (MRCS) [12]) was “not depleted at sub-micromolar doses”, the “depletion of NPCs” value (hES derived NPCs) was “not depleted at sub-micromolar doses” and the Ki67 % post-treatment (Astrocytes [13]) was 2.4, 4.3%. The Ki67 % post-treatment (Fibroblasts [14]) was 29.6, 27.5%, the Ki67 % post-treatment (Glioblastoma 030613 [15]) was 30.4, 16.2* % and the Ki67 % post-treatment (Glioblastoma 040114 [16]) was 56.0, 36.1* %. The Ki67 % post-treatment (Glioblastoma 040811 [17]) was 28.4, 22.5%, the Ki67 % post-treatment (Glioblastoma 050715 [18]) was 11.9, 7.8% and the Ki67 % post-treatment (Glioblastoma 070909 [19]) was 18.2, 10.8* %. The Ki67 % post-treatment (NPC [20]) was 10.6, 12.1%, the Ki67 % post-treatment (SU-DIPGIV [21]) was 34.9, 16.0* % and the Ki67 % post-treatment (SU-DIPGVI [22]) was 26.5, 14.4* %. The TUNEL % post-treatment (Fibroblasts [23]) was 0.4, 0.0%, the TUNEL % post-treatment (NPC [24]) was 3.8, 4.0% and the TUNEL % post-treatment (SU-DIPGIV [25]) was 7.6, 21.4%. For the same molecule, the TUNEL % post-treatment (SU-DIPGVI [26]) was 14.3, 17.9%, the “In vivo blood-brain barrier (BBB) penetration” value [27] was “penetration was demonstrated” and the “maintenance of therapeutic levels” value [27] was over 6 h. For the same molecule, the “BLI signal in DIPGVI xenografts” value (DIPGVI xenografts) was “no significant difference in BLI signal” and the “BLI signal fold change in 040114 xenografts” value (040114 xenografts) was “significant reduction in signal fold change”.
